Test results reported in patent publication US4937245A, “Bisphenylalkylpiperazine derivatives, a method of their preparation and a pharmaceutical preparation” (priority 1987, dated 1990).
pKi: −log10 of the molar value.

Experiments:
[1] = tested on: amphetamine-induced hypermotility in mice; test: Antagonism of amphetamine-induced hypermotility in mice (Test 1); format: in vivo; settings: Mus musculus, sc, 1.5 h, test compound s.c., d-amphetamine 2 mg/kg i.p., locomotor activity 90 min, dose reducing motility to midpoint between amphetamine and saline controls
Method: Antagonism of amphetamine-induced hypermotility in mice
A low dose (2 mg/kg) of d-amphetamine administered to mice induced pronounced locomotor activity.
Female NMRI-mice, weighing about 25 g are divided into groups of 4 animals and placed in macrolon cages. The cages are placed on recording arenas in nine sound attenuated boxes with constant light and ventilation. After a familiarization period of 90 minutes the mice are brought up from the cages and treated in the following way; one control group receives saline i.p., one control group receives d-amphetamine sulphate, 2 mg/kg i.p. and test animals are treated s.c. with three different doses of the test compound and immediately thereafter with d-amphetamine 2 mg/kg i.p. Immediately after the administration the macrolon cages with the mice are put back into the test boxes and a computerized equipment records the locomotor activity in the cages for 90 minutes.
For each test compound 4 cages are treated with saline, 4 cages with only d-amphetamine and 6 cages/dose test compound+d-amphetamine. This is the total of three different experiments.
For each treatment group the mean number of counts during 90 minutes following the administration is calculated.
The ED50 -value (mg/kg) is calculated from the dose-response curve by means of linear regression. […]

[2] = target: T1, D2-receptors (Rattus norvegicus, UniProt P61169); test: Affinity to D2-receptors, 3H-spiroperidol ligand (Test 2); format: binding; settings: 3H-spiroperidol as ligand
T1 construct: from tissue; host or cells: brain membranes
T1 sequence (P61169 whole entry): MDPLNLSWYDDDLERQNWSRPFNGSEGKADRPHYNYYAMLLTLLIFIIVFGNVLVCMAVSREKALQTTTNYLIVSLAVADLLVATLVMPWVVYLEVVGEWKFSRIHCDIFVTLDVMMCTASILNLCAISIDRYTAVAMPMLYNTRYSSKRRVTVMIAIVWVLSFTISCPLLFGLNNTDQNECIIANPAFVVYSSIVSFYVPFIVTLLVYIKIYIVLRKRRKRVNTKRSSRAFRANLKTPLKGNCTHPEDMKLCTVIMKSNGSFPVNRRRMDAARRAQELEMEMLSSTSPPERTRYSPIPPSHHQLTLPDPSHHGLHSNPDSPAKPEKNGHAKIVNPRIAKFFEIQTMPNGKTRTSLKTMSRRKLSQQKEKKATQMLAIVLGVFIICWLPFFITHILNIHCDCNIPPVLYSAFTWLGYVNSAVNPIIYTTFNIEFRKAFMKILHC
Method: Affinity to D2 -receptors
The binding assay is carried out essentially as described by Leysen et al., (Mol. Pharmacol. 21, 301-14, 1982) using ^3 H-spiroperidol as ligand.

[3] = target: T2, 5HT2-receptors (Rattus norvegicus, UniProt P14842); test: Affinity to 5HT2-receptors, 3H-ketanserine ligand (Test 3); format: binding; settings: 3H-ketanserine as ligand
T2 construct: from tissue; host or cells: brain membranes
T2 sequence (P14842 whole entry): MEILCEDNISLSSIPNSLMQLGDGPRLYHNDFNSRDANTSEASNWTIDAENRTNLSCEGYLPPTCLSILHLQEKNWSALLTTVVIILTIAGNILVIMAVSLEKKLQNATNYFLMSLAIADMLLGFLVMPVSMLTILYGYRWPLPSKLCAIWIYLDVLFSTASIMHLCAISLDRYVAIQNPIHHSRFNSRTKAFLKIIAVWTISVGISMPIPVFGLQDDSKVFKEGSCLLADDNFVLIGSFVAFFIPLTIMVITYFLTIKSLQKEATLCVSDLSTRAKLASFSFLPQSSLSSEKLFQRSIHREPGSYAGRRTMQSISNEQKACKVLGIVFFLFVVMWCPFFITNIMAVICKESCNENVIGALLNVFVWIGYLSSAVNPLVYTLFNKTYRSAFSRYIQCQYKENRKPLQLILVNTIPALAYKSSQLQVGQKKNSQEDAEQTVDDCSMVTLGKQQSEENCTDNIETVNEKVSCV
Method: Affinity to 5HT2 -receptors
The binding assay is carried out essentially as described by Leysen et al., (Mol. Pharmacol. 21, 301-14, 1982) using ^3 H-ketanserine as ligand.

[4] = tested on: 5-HT2 binding site; settings: background statement on known drugs; cited from earlier work

Compound	ED50 [1] [mg/kg]	pKi [2]	pKi [3]	5HT2 blocking potency / binding site preference [4]
NC(=O)c1cccnc1N1CCN(CCCC(c2ccc(F)cc2)c2ccc(F)cc2)CC1 [1:6, 4-[4,4-bis(p-fluorophenyl)butyl]-1-(3-carbamoyl-2-pyridyl)piperazine]	0.3	7.52	8.68	–
Fc1ccc(C(CCCN2CCCN(c3ccccn3)CC2)c2ccc(F)cc2)cc1 [1:15, 4-[4,4-bis(p-fluorophenyl)butyl]-1-(2-pyridyl)-(1,4-diaza-cycloheptane)]	–	7.60	8.89	–
Fc1ccc(C(CCCN2CCN(c3ccccn3)CC2)c2ccc(F)cc2)cc1 [3:1, 4-[4,4-bis(p-fluorophenyl)butyl]-1-(2-pyridyl)-piperazine]	0.1	7.22	8.24	–
Cc1nc2sccn2c(=O)c1CCN1CCC(=C(c2ccc(F)cc2)c2ccc(F)cc2)CC1 [ritanserine]	–	–	–	labels preferentially the 5-HT2 binding site
